Legend:
[1] = test system: NK cells; experiment: NK cell fratricide assay (viability of NK cells treated with anti-CD38 antibody); format: cell-based, human; details: DARA 48 hours with 50 nM ATRA
Method: NK function assays. NK cell conjugation assay was performed as previously published and as detailed above. […] Flow-based killing assays were performed as detailed in Supplemental Methods. In brief, CD38^WT or CD38^KO NK cells were co-cultured with CFSE-labeled target MM cells for 4 or 24 hours in the presence of 10 μg/ml of DARA or solvent as control.
[…] Viable NK cells (PO-PRO™-1 negative/7-AAD negative) were assessed based on the frequency or absolute number using beads (Becton Dickinson Biosciences).

[2] = test system: CD38 on MM cell lines; experiment: CD38 expression on MM cell lines after ATRA; format: cell-based, human; details: pretreatment, 50 nM, 48 hours
Source text: Control and ATRA treated samples are shown with black and gray line respectively. Unstained controls are depicted with filled histogram.

[3] = test system: MM cell lines; experiment: Flow-based cytotoxicity / ADCC assay; format: cell-based, human
Method: NK function assays. NK cell conjugation assay was performed as previously published and as detailed above. To quantify fratricide, CD38^WT and CD38^KO NK cells were each treated with 10 μg/ml of DARA or solvent control for 4 or 24 hours, then stained with PO-PRO™-1 dye (Invitrogen, Eugene, Oreg.) and 7-aminoactinomycin D (7-AAD) (Invitrogen, Eugene, Oreg.)^15. Flow-based killing assays were performed as detailed in Supplemental Methods. In brief, CD38^WT or CD38^KO NK cells were co-cultured with CFSE-labeled target MM cells for 4 or 24 hours in the presence of 10 μg/ml of DARA or solvent as control.
(§1) To assess ADCC, MM cell lines or purified primary CD138^+ MM cells were labeled with 5 μM of CFSE and co-cultured with CD38^WT or CD38^KO NK cells at the indicated effector-to-target (E:T) ratios in flat bottom 96-well plates (Falcon, USA) in the presence of 10 μg/ml of DARA or solvent as control^38. […] The viability of target cells was analyzed after 4 hours for MM cell lines, and 24 hours for primary samples. In some experiments, myeloma cell lines were pretreated with 50 nM of ATRA for 2 days prior to 4-hour cytotoxicity assay. To study the effect of ATRA on overall DARA-mediated NK cell cytotoxicity, MM cells and NK cells were co-cultured for 48 hours in the presence of DARA and 50 nM of ATRA. Viable target cells were assessed from the percent or absolute number of 7-AAD negative/CFSE positive cells among total CFSE positive cells or using beads. Background was determined from the target cells incubated in the absence of effector cells and DARA. The percentage of DARA-mediated ADCC (%) was calculated according to the formula: (1−the percent or absolute number of viable target cells in the presence of effector cells with DARA/that of the corresponding sample with solvent control)×100. All assays were performed in triplicate with 2 or 3 independent donors.

[4] = test system: CD38 on NK cells; experiment: CD38 expression on NK cells after ex vivo ATRA; format: cell-based, human; details: 50 nM, 48 hours
Method: (§2) FIGS. 15A-15B show cytotoxicity and DARA-mediated ADCC activity of paired CD38^WT and CD38^KO NK cells against myeloma cell lines pretreated with 50 nM ATRA for 48 hours (mean±SD). […] Frozen peripheral blood mononuclear cells were thawed and analyzed at once. […] Control and ATRA treated samples are shown with black and gray line respectively. Unstained controls are depicted with filled histogram. […] FIGS. 15F-15G Cytotoxicity and DARA-mediated ADCC activity of paired CD38^WT and CD38^KO NK cells against myeloma cell lines in a 48 hour-cytotoxicity assay in the presence of 50 nM ATRA or solvent control. E:T ratio is 0.25:1 for MM.1S and 0.5:1 for KMS-11 (mean±SD).

[5] = test system: CD38 on NK cells; experiment: CD38 expression on PB-NK of APL patients during ATRA treatment; format: in vivo, human; details: consolidation therapy, versus prior to treatment
Method: as §2

[6] = test system: H929 cell line; experiment: Flow-based cytotoxicity assay; format: cell-based, human; details: absence of NK cells and complement, DARA 10 μg/ml, 4 hours
Method: FIGS. 11A-11D show resistance of CD16^KO NK cells to DARA-induced fratricide.
as §1

[7] = test system: NK cells; details: patients; cited from earlier work
[8] = concurrent treatment of MM and NK cells, 50 nM, 48 hours

| Compound | fratricide of CD38^WT NK cells [1] | CD38 levels on MM target cells [2] | DARA-mediated ADCC ([3]; MM cells pretreated with ATRA, both CD38^WT and CD38^KO NK cells) | DARA-mediated ADCC of CD38^KO NK cells [3, 8] | DARA-mediated ADCC of CD38^WT NK cells [3, 8] | direct cytotoxicity of CD38^WT and paired CD38^KO NK cells ([3]; concurrent treatment, 50 nM, 48 hours) | CD38 levels on CD38^KO NK cells [4] | CD38 levels on CD38^WT NK cells [4] | CD38 on PB-NK of patients [5] | DARA-mediated lysis [6] | persistence of decrease in circulating NK cells after discontinuation of treatment [7] |
| --- | --- | --- | --- | --- | --- | --- | --- | --- | --- | --- | --- |
| CC1=C(/C=C/C(C)=C/C=C/C(C)=C/C(=O)O)C(C)(C)CCC1 [ATRA, all-trans retinoic acid] | enhanced fratricide | up-regulates CD38 levels | improves DARA-mediated ADCC | no impact | significantly impaired | significantly reduced direct cytotoxicity | not on the paired CD38^KO NK cells | up-regulates CD38 levels | significant up-regulation of CD38 |  |  |
| DARA: monoclonal antibody targeting CD38 |  |  |  |  |  |  |  |  |  | no DARA-mediated lysis | 3-6 months |
